For this test, the target named is T1, TPO-R (Homo sapiens, UniProt P40238).
T1 construct: made in house
T1 sequence (P40238 26-491 limits assumed): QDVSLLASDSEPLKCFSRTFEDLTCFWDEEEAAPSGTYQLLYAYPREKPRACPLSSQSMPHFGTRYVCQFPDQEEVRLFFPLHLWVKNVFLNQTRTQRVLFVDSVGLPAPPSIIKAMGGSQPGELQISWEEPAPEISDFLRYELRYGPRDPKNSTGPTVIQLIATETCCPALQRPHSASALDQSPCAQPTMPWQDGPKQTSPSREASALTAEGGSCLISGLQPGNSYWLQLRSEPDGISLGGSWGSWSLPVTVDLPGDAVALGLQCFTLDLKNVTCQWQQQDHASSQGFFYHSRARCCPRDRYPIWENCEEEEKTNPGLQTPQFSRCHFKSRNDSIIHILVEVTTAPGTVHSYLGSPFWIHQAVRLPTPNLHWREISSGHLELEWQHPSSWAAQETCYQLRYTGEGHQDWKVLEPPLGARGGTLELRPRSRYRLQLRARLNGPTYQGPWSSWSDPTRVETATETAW
The test is described as follows: competition binding assay: MBP-TPO156 binding to immobilized TPO-R (ELISA). Particulars: read-out: IC50. As to the method: A variety of methods can be used to evaluate IC50 values. For example, an equilibrium binding ELISA assay, using either MBP-TPO or lacI-peptide tracer, was used to determine whether the peptides inhibit the binding of TPO to the extracellular domain of the TPO receptor. Typically, the IC50 value were determined using the free peptide. The IC50value can be determined using the free peptide, which optionally can be C-terminally amidated, or can be prepared as an ester or other carboxy amide.
Binding affinities of chemically synthesized peptides for TPO-R were measured in a competition binding assay. The wells of a microtiter plate were coated with 1 mg streptavidin, blocked with PBS/1% BSA, followed by 50 ng of biotinylated anti-receptor immobilizing antibody (Ab179). The wells were then treated with a 1:10 dilution of soluble TPO-R harvest. Various concentrations of peptide or peptide mimetic were mixed with a constant amount of a truncated form of TPO consisting of residues 1–156 fused to the C-terminus of maltose binding protein (MBP-TPO156). The peptide MBP-TPO156 mixtures were added to the TPO-R coated wells, incubated for 2 hours at 4° C. and then washed with PBS. The amount of MBP-TPO156 that was bound at equilibrium was measured by adding a rabbit anti-sera directed against MBP, followed by alkaline phosphatase conjugated goat anti-rabbit IgG. The amount of alkaline phosphatase in each well was then determined using standard methods.
The assay is conducted over a range of peptide concentrations and the results are graphed such that the y axis represents the amount of bound MBP-TPO156 and the x axis represents the concentration of peptide or peptide mimetic.
In general terms: ELISA stands for enzyme-linked immunosorbent assay.

Like-named read-outs stand apart in the source and are kept apart here. Where a SMILES comes first, the peptide text is derived from it.

The source of these data is patent US7091311B2, “Peptides and compounds that bind to a receptor” (SmithKline Beecham Corporation, priority 1996, dated 2006).

As usually defined, the IC50 is the concentration needed to halve the response being measured.

For `CSCC[C@H](N)C(=O)N[C@H](C(=O)NCC(=O)N1CCC[C@H]1C(=O)N[C@H](C(=O)N[C@@H](CC(C)C)C(=O)N[C@@H](CCCNC(=N)N)C(=O)N[C@@H](CO)C(=O)NCC(=O)N[C@@H](CSSC[C@H](NC(=O)CNC(=O)[C@H](CO)NC(=O)[C@H](CCCNC(=N)N)NC(=O)[C@H](CC(C)C)NC(=O)[C@@H](NC(=O)[C@@H]1CCCN1C(=O)CNC(=O)[C@@H](NC(=O)[C@@H](N)CCSC)C(C)C)[C@@H](C)O)C(N)=O)C(N)=O)[C@@H](C)O)C(C)C` (HELM PEPTIDE1{M.V.G.P.T.L.R.S.G.C.[am]}|PEPTIDE2{M.V.G.P.T.L.R.S.G.C.[am]}$PEPTIDE1,PEPTIDE2,10:R3-10:R3$$$V2.0), the IC50 (Table 7, dimer compounds) was 200000 nM.
`CC(C)C[C@H](NC(=O)[C@H](Cc1c[nH]c2ccccc12)NC(=O)[C@H](CCC(N)=O)NC(=O)[C@H](CCCNC(=N)N)NC(=O)[C@H](CC(C)C)NC(=O)[C@@H](NC(=O)[C@@H]1CCCN1C(=O)CNC(=O)[C@H](CSSC[C@H](NC(=O)[C@H](CCC(N)=O)NC(=O)[C@@H](NC(=O)[C@@H](N)CO)C(C)C)C(=O)NCC(=O)N1CCC[C@H]1C(=O)N[C@H](C(=O)N[C@@H](CC(C)C)C(=O)N[C@@H](CCCNC(=N)N)C(=O)N[C@@H](CCC(N)=O)C(=O)N[C@@H](Cc1c[nH]c2ccccc12)C(=O)N[C@@H](CC(C)C)C(=O)N[C@@H](C)C(=O)N[C@@H](C)C(=O)N[C@@H](CCCNC(=N)N)C(=O)N[C@@H](CC(N)=O)C(=O)N[C@@H](Cc1c[nH]cn1)C(=O)N[C@@H](CC(C)C)C(=O)N[C@@H](CO)C(N)=O)[C@@H](C)O)NC(=O)[C@H](CCC(N)=O)NC(=O)[C@@H](NC(=O)[C@@H](N)CO)C(C)C)[C@@H](C)O)C(=O)N[C@@H](C)C(=O)N[C@@H](C)C(=O)N[C@@H](CCCNC(=N)N)C(=O)N[C@@H](CC(N)=O)C(=O)N[C@@H](Cc1c[nH]cn1)C(=O)N[C@@H](CC(C)C)C(=O)N[C@@H](CO)C(N)=O` (HELM PEPTIDE1{S.V.Q.C.G.P.T.L.R.Q.W.L.A.A.R.N.H.L.S.[am]}|PEPTIDE2{S.V.Q.C.G.P.T.L.R.Q.W.L.A.A.R.N.H.L.S.[am]}$PEPTIDE1,PEPTIDE2,4:R3-4:R3$$$V2.0): the IC50 (Table 7, dimer compounds) was not above 500 nM.
Regarding `CC[C@H](C)[C@@H]1NC(=O)[C@H](Cc2c[nH]c3ccccc23)NC(=O)[C@H](CCC(=O)O)NC(=O)[C@H](CCCNC(=N)N)NC(=O)[C@H](CC(C)C)NC(=O)[C@H]([C@@H](C)O)NC(=O)[C@@H]2CCCN2C(=O)CNC(=O)[C@H](CC(=O)O)NC(=O)[C@H](C)NC(=O)CSC[C@@H](C(N)=O)NC(=O)[C@H](Cc2ccccc2)NC(=O)[C@H](CO)NC1=O` (HELM PEPTIDE1{[O=C(C[*:3])[*:2]].A.D.G.P.T.L.R.E.W.I.S.F.C.[am]}$PEPTIDE1,PEPTIDE1,1:R3-14:R3$$$V2.0), the half-inhibitory concentration (IC50) (Table 4, cyclized compounds) was not above 500 nM.
In the case of `CC[C@H](C)[C@H](NC(=O)[C@H](Cc1c[nH]c2ccccc12)NC(=O)[C@H](CCC(=O)O)NC(=O)[C@H](CCCNC(=N)N)NC(=O)[C@H](CC(C)C)NC(=O)[C@@H](NC(=O)[C@@H]1CCCN1C(=O)CNC(=O)[C@H](CC(=O)O)NC(=O)[C@H](C)NC(C)=O)[C@@H](C)O)C(=O)N[C@@H](CO)C(=O)N[C@@H](Cc1ccccc1)C(=O)N[C@@H](CSSC[C@H](NC(=O)[C@H](Cc1ccccc1)NC(=O)[C@H](CO)NC(=O)[C@@H](NC(=O)[C@H](Cc1c[nH]c2ccccc12)NC(=O)[C@H](CCC(=O)O)NC(=O)[C@H](CCCNC(=N)N)NC(=O)[C@H](CC(C)C)NC(=O)[C@@H](NC(=O)[C@@H]1CCCN1C(=O)CNC(=O)[C@H](CC(=O)O)NC(=O)[C@H](C)NC(C)=O)[C@@H](C)O)[C@@H](C)CC)C(N)=O)C(N)=O` (HELM PEPTIDE1{[ac].A.D.G.P.T.L.R.E.W.I.S.F.C.[am]}|PEPTIDE2{[ac].A.D.G.P.T.L.R.E.W.I.S.F.C.[am]}$PEPTIDE1,PEPTIDE2,14:R3-14:R3$$$V2.0; C-terminus assumed), the IC50 (Table 7, dimer compounds) is not above 500 nM.
